“And” between values parts separate entries of the source, which are not always exact repeats. Identical values can stand only once.
Columns and labels:
Type in all cases: in vivo, human
[1] = test system: MS patients in the relapsing and remitting course of the disease (RRMS); test: Phase 2 trial: number of new gadolinium contrast-enhancing (CE) T1-weighted lesions on monthly MRI over 6 months; conditions: for LSMean cumulative number of new CE lesions over 6 months / mean cumulative number of new CE lesions over 6 months: n=70
Procedure: A Phase 2, randomized, double-blind, placebo-controlled, multi-center clinical trial of CHS-131 for the treatment of multiple sclerosis (MS) was conducted. The primary endpoint was the number of new gadolinium contrast-enhancing (CE) T1-weighted lesions on monthly MRI over 6 months.
The study enrolled MS patients in the relapsing and remitting course of the disease (RRMS) who had been diagnosed within ≤3 years of enrollment. Patients had to be treatment-naïve, have ≥1 gadolinium-positive lesion within 12 months of enrollment, and have an Expanded Disability Status Score (EDSS) of 0-6 at screening.
Part 1 was a double-blind, parallel-group, 6-month study. Patients were randomized to oral CHS-131 at 3 mg or 1 mg or placebo in a 1:1:1 ratio at 21 sites in Russia. Monthly MRIs were read in a blinded fashion at the Buffalo Neuroimaging and Analysis Center, Buffalo, N.Y., USA. Part 2 is an open label, 6-month, safety extension study, in which all subjects transition to 1 mg CHS-131 daily, to evaluate clinical response, CE lesions on MM, and safety.
The mean cumulative number of new CE lesions over 6 months was 4.2 (LSMean 3.10) for 3 mg CHS131 (n=70), 7.6 (LSMean 5.15) for 1 mg CHS131 (n=70), and 7.8 (LSMean 6.49) for placebo (n=69). The response was dose-dependent. […] FIG. 2 provides a graphical representation of these LSMean data.
Upon completion of the six month trial period described in Example 1, the number of new gadolinium CE T1-weighted lesions was evaluated in the entire study population and separately in men and women.
The ratios of changes in lesions were evaluated by a least square means (LSMeans) analysis. In such an analysis, multiple factors including both categorical (e.g. treatment, center, gender) and continuous covariates (e.g. baseline measures) can be accounted for.

[2] = test system: MS patients in the relapsing and remitting course of the disease (RRMS); test: Phase 2 trial: new and enlarged T2 lesions over 6 months; conditions: for mean number of new and enlarged T2 lesions over 6 months: n=76
Procedure: A Phase 2, randomized, double-blind, placebo-controlled, multi-center clinical trial of CHS-131 for the treatment of multiple sclerosis (MS) was conducted. The primary endpoint was the number of new gadolinium contrast-enhancing (CE) T1-weighted lesions on monthly MRI over 6 months. The study enrolled MS patients in the relapsing and remitting course of the disease (RRMS) who had been diagnosed within ≤3 years of enrollment. Patients had to be treatment-naïve, have ≥1 gadolinium-positive lesion within 12 months of enrollment, and have an Expanded Disability Status Score (EDSS) of 0-6 at screening. Part 1 was a double-blind, parallel-group, 6-month study. Patients were randomized to oral CHS-131 at 3 mg or 1 mg or placebo in a 1:1:1 ratio at 21 sites in Russia. Monthly MRIs were read in a blinded fashion at the Buffalo Neuroimaging and Analysis Center, Buffalo, N.Y., USA. Part 2 is an open label, 6-month, safety extension study, in which all subjects transition to 1 mg CHS-131 daily, to evaluate clinical response, CE lesions on MM, and safety. The mean number of new and enlarged lesions over 6 months was 3.43 for 3 mg CHS131 (n=76), 4.21 for 1 mg CHS131 (n=76), and 4.89 for placebo (n=74). The response was dose-dependent.

[3] = test system: MS patients in the relapsing and remitting course of the disease (RRMS); test: Trend line of change in cortical volume versus EDSS scores; conditions: 6-month time point
Source text: To evaluate the connection between cortical volume loss and dysfunction, the reduction in volume loss was compared to EDSS scores of the MS patients. FIGS. 5 and 6 show the relationship between the change in cortical volume and EDSS scores at 3 months and 6 months, respectively.

For `O=S(=O)(Nc1cc(Cl)c(Oc2cnc3ccccc3c2)c(Cl)c1)c1ccc(Cl)cc1Cl` [CHS-131], the “incidence of new CE lesions lower than with placebo” value ([1]; 1 mg, 6 months) was 21%, the “LSMean cumulative number of new CE lesions over 6 months” value ([1]; 1 mg) was 5.15 and the “mean cumulative number of new CE lesions over 6 months” value ([1]; 1 mg) was 7.6. For the same compound, the “LSMean cumulative number of new CE lesions over 6 months” value ([1]; 3 mg) was 3.10, the “mean cumulative number of new CE lesions over 6 months” value ([1]; 3 mg) was 4.2 and the “reduction of incidence of new CE lesions versus placebo” value ([1]; 3 mg, whole population, 6 months, p=0.003) was 52% and 53%. For the same compound, the “LSMean # of Lesions (new gadolinium CE T1-weighted, 6 months)” value (“LSMean # of Lesions” below) ([1]; Female, 1 mg) was 5.48, the “Mean # of Lesions (new gadolinium CE T1-weighted, 6 months, observed data)” value ([1]; Female, 1 mg) was 8.01 and the “Percent Change from Placebo (observed mean # of lesions)” value ([1]; Female, 1 mg) was 3.2%. For the same compound, the “Percent Change from Placebo (inverse of ratio of LSMeans treatment:placebo)” value ([1]; Female, 1 mg, p 0.8481) was −5% (0.8481), the “LSMean # of Lesions” value ([1]; Female, 3 mg) was 4.18 and the “Mean # of Lesions (new gadolinium CE T1-weighted, 6 months, observed data)” value ([1]; Female, 3 mg) was 4.97. The “Percent Change from Placebo (observed mean # of lesions)” value ([1]; Female, 3 mg) was −36.0%, the “Percent Change from Placebo (inverse of ratio of LSMeans treatment:placebo)” value ([1]; Female, 3 mg, p 0.2516) was −28% (0.2516) and the “LSMean # of Lesions” value ([1]; Male & Female, 1 mg) was 5.15. For the same compound, the “Mean # of Lesions (new gadolinium CE T1-weighted, 6 months, observed data)” value ([1]; Male & Female, 1 mg) was 7.19, the “Percent Change from Placebo (observed mean # of lesions)” value ([1]; Male & Female, 1 mg) was −9.6% and the “Percent Change from Placebo (inverse of ratio of LSMeans treatment:placebo)” value ([1]; Male & Female, 1 mg, p 0.3049) was −21% (0.3049). For the same compound, the “LSMean # of Lesions” value ([1]; Male & Female, 3 mg) was 3.10, the “Mean # of Lesions (new gadolinium CE T1-weighted, 6 months, observed data)” value ([1]; Male & Female, 3 mg) was 4.51 and the “Percent Change from Placebo (observed mean # of lesions)” value ([1]; Male & Female, 3 mg) was −43.3%. The “Percent Change from Placebo (inverse of ratio of LSMeans treatment:placebo)” value ([1]; Male & Female, 3 mg, p 0.0016) was −52% (0.0016), the “LSMean # of Lesions” value ([1]; Male, 1 mg) was 4.31 and the “Mean # of Lesions (new gadolinium CE T1-weighted, 6 months, observed data)” value ([1]; Male, 1 mg) was 5.93. For the same compound, the “Percent Change from Placebo (observed mean # of lesions)” value ([1]; Male, 1 mg) was −30.4%, the “Percent Change from Placebo (inverse of ratio of LSMeans treatment:placebo)” value ([1]; Male, 1 mg, p 0.0827) was −48% (0.0827) and the “LSMean # of Lesions” value ([1]; Male, 3 mg) was 2.42. The “Mean # of Lesions (new gadolinium CE T1-weighted, 6 months, observed data)” value ([1]; Male, 3 mg) was 3.81, the “Percent Change from Placebo (observed mean # of lesions)” value ([1]; Male, 3 mg) was −55.4% and the “Percent Change from Placebo (inverse of ratio of LSMeans treatment:placebo)” value ([1]; Male, 3 mg, p 0.0012) was −71% (0.0012). For the same compound, the “reduction of new T1 lesions in the study analysis” value ([1]; men, 3 mg per day) was 71%, the “reduction in T2 lesions compared to placebo (LSMeans analysis)” value ([2]; 1 mg) was 14% and the “mean number of new and enlarged T2 lesions over 6 months” value ([2]; 1 mg) was 4.21. The “mean number of new and enlarged T2 lesions over 6 months” value ([2]; 3 mg) was 3.43, the “reduction in T2 lesions compared to placebo (LSMeans analysis)” value ([2]; 3 mg, p=0.0767) was 30% and the “trend line slope, change in cortical volume vs EDSS score” value ([3]; 1 mg) was −0.138. The “trend line slope, change in cortical volume vs EDSS score” value ([3]; 3 mg) was 0.080.

Source: US20190224186A1, “TREATMENT OF MULTIPLE SCLEROSIS WITH CHS-131” (InteKrin Therapeutics, Inc., priority 2016, published 2019)
